Experimental data: BigSolDB 2.1

CC1(C)NC(=O)NC1=O
solubility (mole fraction)
Conditions | 283.15 K | 288.15 K | 293.15 K | 298.15 K | 303.15 K | 308.15 K | 313.15 K | 318.15 K | 323.15 K
in acetonitrile | 0.0123 | 0.0144 | 0.017 | 0.0196 | 0.0227 | 0.026 | 0.0294 | 0.0345 | 0.039
in ethanol | 0.0412 | 0.0465 | 0.0526 | 0.0592 | 0.0672 | 0.0757 | 0.0846 | 0.0961 | 0.108
in ethyl acetate | 0.0118 | 0.0133 | 0.0154 | 0.0175 | 0.0191 | 0.0213 | 0.0236 | 0.026 | 0.0289
in isobutanol | 0.0242 | 0.0284 | 0.0328 | 0.038 | 0.0439 | 0.0509 | 0.0577 | 0.0672 | 0.0757
in isopropanol | 0.0366 | 0.042 | 0.0481 | 0.0554 | 0.063 | 0.0714 | 0.0803 | 0.0914 | 0.102
in methanol | 0.0647 | 0.0719 | 0.0806 | 0.0896 | 0.0993 | 0.111 | 0.122 | 0.135 | 0.15
in n-butanol | 0.026 | 0.0296 | 0.0338 | 0.0389 | 0.0447 | 0.0509 | 0.0574 | 0.0661 | 0.0737
in n-pentanol | 0.0236 | 0.0267 | 0.0305 | 0.0348 | 0.0398 | 0.0453 | 0.0514 | 0.0583 | 0.0641
in n-propanol | 0.0326 | 0.0373 | 0.0424 | 0.0476 | 0.0543 | 0.0616 | 0.0687 | 0.0788 | 0.0881
in n-propyl acetate | 0.00923 | 0.0105 | 0.0118 | 0.0138 | 0.0155 | 0.0172 | 0.0193 | 0.0215 | 0.0234
in sec-butanol | 0.0384 | 0.0449 | 0.0505 | 0.058 | 0.0655 | 0.074 | 0.083 | 0.093 | 0.105
in water | 0.0163 | 0.0186 | 0.0213 | 0.0242 | 0.0279 | 0.0326 | 0.038 | 0.0458 | 0.0532
